The structures appear in SMILES notation.

The source of these data is patent publication US20260306460A1, “COMPOSITION FOR REMOVING AND INHIBITING SENESCENT CELLS, AND USES THEREOF” (LIFECEUTIX CO., LTD., priority 2023, published 2026).

The test system of the test is SAOS-2. Nature of the test: Suppression of doxorubicin-senescent SAOS-2 tumors in nude mice, Example 19. It counts as in vivo, mouse. The note with it: after DOX 10 mg/kg ip; 21 days daily; LX-5701 360 mg/kg po, LX-2101 20 mg/kg ip, LX-2102 10 mg/kg ip; DOX repeated as control. How it is done: Seven-week-old male BALB/c nude mice (KRIBB Laboratory Animal Resource Center) were acclimated to the experimental environment for one week, after which they were randomly assigned to experimental and control groups. Evaluation was performed using the same method as in Example 2-1 of WO2023-085787 A1. Cultured human osteosarcoma cell lines, SAOS-2 (10^6 cells), were mixed in phosphate-buffered saline (PBS) and administered subcutaneously to anesthetized mice using 2% isoflurane (Sigma). When the tumors reached approximately […], doxorubicin (10 mg/kg) was mixed in a 1:1 solution of distilled water and PBS (pH 7.2) and administered intraperitoneally to induce tumor senescence. After 10 days, LX-5701 mixed in PBS at a concentration of 360 mg/kg was administered orally daily for 21 days, or LX-2101 mixed in PBS solution with 5% DMSO at a concentration of 20 mg/kg or LX-2102 mixed in PBS with 5% DMSO at a concentration of 10 mg/kg was administered intraperitoneally daily for 21 days, and then the tumor size was measured. The control group was repeatedly administered a solution mixed with doxorubicin, and then the tumor size was measured.

`COc1cccc2c1C(=O)c1c(O)c3c(c(O)c1C2=O)C[C@@](O)(C(=O)CO)C[C@@H]3O[C@H]1C[C@H](N)[C@H](O)[C@H](C)O1` [DOX, doxorubicin]: the “Tumor Diameter” value is listed as 16.1 (±0.9) mm.
